Reference: PubChem BioAssay AID248 (DTP/NCI, 2004)
Several values for one entry are separate records, joined by “and”; a condition that tells them apart may be missing. Identical values can stand only once. Toxic doses and inconclusive results are not listed. Cut-off read from the data, not from the text of the source: active = T/C of 150% or more; inactive = T/C below 125%.

Test system: L1210 leukemia ip in BDF1 mice, survival T/C
Test: NCI In Vivo Anticancer Drug Screen. Data for tumor model L1210 Leukemia (intraperitoneal) in B6D2F1 (BDF1) mice
Conditions: endpoint: mean survival time, higher = longer survival
Procedure, shortened: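 Transplantable tumor model; survival measured in treated vs vehicle control mice. Value = treated/control.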

[1] = dose: 100.0 mg/kg/injection, schedule: Q01DX009 (sc), vehicle: olive oil, sesame oil, peanut oil
[2] = dose: 100.0 mg/kg/injection, schedule: Q04DX003 (sc), vehicle: olive oil, sesame oil, peanut oil
[3] = dose: 200.0 mg/kg/injection, schedule: Q01DX009 (sc), vehicle: olive oil, sesame oil, peanut oil
[4] = dose: 200.0 mg/kg/injection, schedule: Q04DX003 (sc), vehicle: olive oil, sesame oil, peanut oil
[5] = dose: 400.0 mg/kg/injection, schedule: Q01DX009 (sc), vehicle: olive oil, sesame oil, peanut oil
[6] = dose: 400.0 mg/kg/injection, schedule: Q04DX003 (sc), vehicle: olive oil, sesame oil, peanut oil
[7] = dose: 100.0 mg/kg/injection, schedule: Q04DX003 (ip), vehicle: saline with Tween-80
[8] = dose: 200.0 mg/kg/injection, schedule: Q04DX003 (ip), vehicle: saline with Tween-80
[9] = dose: 400.0 mg/kg/injection, schedule: Q04DX003 (ip), vehicle: saline with Tween-80
[10] = dose: 100.0 mg/kg/injection, schedule: Q01DX009 (ip), vehicle: saline
[11] = dose: 200.0 mg/kg/injection, schedule: Q01DX009 (ip), vehicle: saline
[12] = dose: 200.0 mg/kg/injection, schedule: Q01DX001 (ip), vehicle: saline
[13] = dose: 100.0 mg/kg/injection, schedule: Q01DX001 (ip), vehicle: carboxymethylcellulose (CMC)
[14] = dose: 200.0 mg/kg/injection, schedule: Q01DX001 (ip), vehicle: carboxymethylcellulose (CMC)
[15] = dose: 400.0 mg/kg/injection, schedule: Q01DX001 (ip), vehicle: carboxymethylcellulose (CMC)
[16] = dose: 100.0 mg/kg/injection, schedule: Q04DX002 (ip), vehicle: Klucel (hydroxypropylcellulose) (HPC)
[17] = dose: 200.0 mg/kg/injection, schedule: Q04DX002 (ip), vehicle: Klucel (hydroxypropylcellulose) (HPC)
[18] = dose: 100.0 mg/kg/injection, schedule: Q01DX001 (ip), vehicle: saline
[19] = dose: 400.0 mg/kg/injection, schedule: Q01DX001 (ip), vehicle: saline

Measured: T/C

Cc1c(Cl)c(Cl)cc([N+](=O)[O-])c1Cl
inactive: dose: 66.0 mg/kg/injection, schedule: Q01DX009 (sc), vehicle: olive oil, sesame oil, peanut oil 100 % of control | [1] 98 % of control | [2] 105 % of control | dose: 150.0 mg/kg/injection, schedule: Q01DX009 (sc), vehicle: olive oil, sesame oil, peanut oil 102 % of control | [3] 94 % of control | [4] 106 % of control | [5] 105 % of control | [6] 97 % of control

Oc1c(Br)cc(Br)cc1C=Nc1ccc(Cl)cc1.Oc1c(Br)cc(Br)cc1C=Nc1ccc(Cl)cc1.[Co]
inactive: [7] 98 % of control | [8] 103 % of control | [9] 98 % of control

C#CC(C)OCC1CO1 (stereo not drawn)
inactive: dose: 50.0 mg/kg/injection, schedule: Q01DX009 (ip), vehicle: saline 86 % of control | [10] 86 % of control | dose: 100.0 mg/kg/injection, schedule: Q04DX003 (ip), vehicle: saline sonified 117 % of control | [11] 93 % of control | dose: 200.0 mg/kg/injection, schedule: Q04DX003 (ip), vehicle: saline sonified 93 % of control

CCCCCCCCCCCC(=O)[O][Sn]([CH2]c1ccccc1)([CH2]c1ccccc1)[CH2]c1ccccc1
inactive: dose: 0.5 mg/kg/injection, schedule: Q04DX003 (ip), vehicle: other 99 % of control | dose: 0.75 mg/kg/injection, schedule: Q01DX009 (ip), vehicle: other 97 % of control | dose: 1.0 mg/kg/injection, schedule: Q04DX003 (ip), vehicle: other 99 % of control | dose: 1.5 mg/kg/injection, schedule: Q01DX009 (ip), vehicle: other 94 % of control | dose: 3.0 mg/kg/injection, schedule: Q01DX009 (ip), vehicle: other 97 % of control | dose: 3.0 mg/kg/injection, schedule: Q04DX003 (ip), vehicle: other 100 % of control

Nc1cc(Cl)ccc1NCCO
inactive: dose: 33.0 mg/kg/injection, schedule: Q01DX009 (ip), vehicle: saline 101 % of control | dose: 66.0 mg/kg/injection, schedule: Q01DX009 (ip), vehicle: saline 86 % of control | dose: 132.0 mg/kg/injection, schedule: Q01DX001 (ip), vehicle: saline 97 % of control and 111 % of control | dose: 132.0 mg/kg/injection, schedule: Q04DX003 (ip), vehicle: acetone 97 % of control | [12] 97 % of control and 105 % of control | dose: 300.0 mg/kg/injection, schedule: Q01DX001 (ip), vehicle: saline 100 % of control and 105 % of control

O=C(O)c1cc(N=Nc2ccc(S(=O)(=O)Nc3nccs3)cc2)ccc1O
inactive: [13] 95 % of control | [14] 95 % of control | [15] 101 % of control

COC1CCC(CCNC(N)=O)CC1OC (stereo not drawn)
inactive: [16] 100 % of control | [17] 117 % of control | dose: 400.0 mg/kg/injection, schedule: Q04DX002 (ip), vehicle: Klucel (hydroxypropylcellulose) (HPC) 90 % of control

CN1CSCC1C(=O)O (stereo not drawn)
inactive: dose: 100.0 mg/kg/injection, schedule: Q04DX003 (ip), vehicle: saline 94 % of control | dose: 200.0 mg/kg/injection, schedule: Q04DX003 (ip), vehicle: saline 96 % of control

CC[N+](CC)(CC)CCNC(C)=O
inactive: [10] 111 % of control | [11] 100 % of control | dose: 400.0 mg/kg/injection, schedule: Q01DX009 (ip), vehicle: saline 105 % of control

N#C[CH2][Sn]([I])([c]1ccccc1)[c]1ccccc1
inactive: dose: 12.5 mg/kg/injection, schedule: Q04DX002 (ip), vehicle: saline with Tween-80 100 % of control | dose: 25.0 mg/kg/injection, schedule: Q04DX002 (ip), vehicle: saline with Tween-80 107 % of control | dose: 50.0 mg/kg/injection, schedule: Q04DX002 (ip), vehicle: saline with Tween-80 91 % of control

C=COCCN1CCN(CCCN2c3ccccc3Sc3ccc(C(F)(F)F)cc32)CC1
inactive: dose: 3.13 mg/kg/injection, schedule: Q04DX003 (ip), vehicle: saline 102 % of control | dose: 6.25 mg/kg/injection, schedule: Q04DX003 (ip), vehicle: saline 102 % of control | dose: 12.5 mg/kg/injection, schedule: Q04DX003 (ip), vehicle: saline 107 % of control

O=C(Nc1ccc(Cl)c(Cl)c1)c1ccc(Cl)cc1
inactive: dose: 100.0 mg/kg/injection, schedule: Q04DX002 (ip), vehicle: saline with Tween-80 103 % of control | dose: 200.0 mg/kg/injection, schedule: Q04DX002 (ip), vehicle: saline with Tween-80 95 % of control | dose: 400.0 mg/kg/injection, schedule: Q04DX002 (ip), vehicle: saline with Tween-80 95 % of control

C=C(Br)CNS(=O)(=O)c1ccc(OC)cc1
inactive: [7] 92 % of control | [8] 101 % of control | [9] 94 % of control

COc1cc([N+](=O)[O-])ccc1NC(=O)Oc1ccccc1C(N)=O
inactive: dose: 12.5 mg/kg/injection, schedule: Q01DX009 (ip), vehicle: Klucel (hydroxypropylcellulose) (HPC) 102 % of control | dose: 25.0 mg/kg/injection, schedule: Q01DX009 (ip), vehicle: Klucel (hydroxypropylcellulose) (HPC) 100 % of control | dose: 50.0 mg/kg/injection, schedule: Q01DX009 (ip), vehicle: Klucel (hydroxypropylcellulose) (HPC) 98 % of control

O=C(CCN1CC=C(c2ccccc2)CC1)c1ccc(Oc2ccccc2)cc1
inactive: dose: 50.0 mg/kg/injection, schedule: Q01DX009 (ip), vehicle: saline with Tween-80 100 % of control | dose: 100.0 mg/kg/injection, schedule: Q01DX009 (ip), vehicle: saline with Tween-80 96 % of control | [7] 96 % of control | dose: 200.0 mg/kg/injection, schedule: Q01DX009 (ip), vehicle: saline with Tween-80 105 % of control | [8] 94 % of control

C1=CC2c3ccccc3C1c1ccccc12
inactive: [1] 101 % of control | [2] 102 % of control | [3] 103 % of control | [4] 95 % of control | [5] 102 % of control | [6] 93 % of control

c1ccc(-c2cnc(-c3ccccc3)[nH]2)cc1
inactive: [7] 97 % of control | [8] 100 % of control | [9] 100 % of control

CCOC(=O)NCC(C)(C)C
inactive: [18] 104 % of control | [12] 107 % of control | [19] 93 % of control

CCCCC(=O)N/N=C/c1ccccc1OCC
inactive: [18] 102 % of control | [12] 107 % of control | [19] 93 % of control

COc1ccc(CN2CCCN(Cc3ccc(OC)cc3OC)C2c2cccc(OC)c2O)c(OC)c1
inactive: dose: 50.0 mg/kg/injection, schedule: Q01DX001 (ip), vehicle: saline 95 % of control | [18] 92 % of control | [12] 92 % of control | [19] 95 % of control

CCNC(=O)OCc1cc(Cl)cc(Cl)c1OC(=O)NCC
inactive: [13] 103 % of control | [14] 97 % of control | [15] 106 % of control

NC(=O)NC1CCCCCC1
inactive: [7] 94 % of control | [8] 91 % of control | [9] 91 % of control

CC1(C)OC(=O)CC1c1ccc(Cl)cc1 (stereo not drawn)
inactive: [18] 98 % of control | [12] 93 % of control | [19] 106 % of control

CCCCNC(=S)NCCCC
inactive: dose: 100.0 mg/kg/injection, schedule: Q01DX009 (ip), vehicle: Klucel (hydroxypropylcellulose) (HPC) 92 % of control | [16] 98 % of control | dose: 200.0 mg/kg/injection, schedule: Q01DX009 (ip), vehicle: Klucel (hydroxypropylcellulose) (HPC) 98 % of control | [17] 104 % of control

CC(C)C(C#N)(CCCCN1CCCC1)c1cccc2ccccc12 (stereo not drawn)
inactive: [7] 95 % of control

Cc1cc(C)c(S(=O)(=O)CC(Cl)c2ccccc2)c(C)c1 (stereo not drawn)
inactive: dose: 100.0 mg/kg/injection, schedule: Q01DX001 (ip), vehicle: acetone 95 % of control | dose: 100.0 mg/kg/injection, schedule: Q04DX003 (ip), vehicle: acetone 103 % of control | dose: 200.0 mg/kg/injection, schedule: Q01DX001 (ip), vehicle: acetone 97 % of control | dose: 200.0 mg/kg/injection, schedule: Q04DX003 (ip), vehicle: acetone 97 % of control | dose: 400.0 mg/kg/injection, schedule: Q01DX001 (ip), vehicle: acetone 93 % of control | dose: 400.0 mg/kg/injection, schedule: Q04DX003 (ip), vehicle: acetone 97 % of control
